In US6809109B2, “2, 4-disubstituted-pyridine N-oxides useful as HIV reverse transcriptase inhibitors” (Bristol-Myers Squibb Company, priority 2002, dated 2004):
Converted amounts (≈) assume the structure as drawn.

Test system: HIV-1 (RF)
Experiment: HIV RNA assay, microplate based compound evaluation in HIV-1 infected MT-2 cells
Assay type: cell-based
Conditions: Human immunodeficiency virus 1, MT2, 72 h; HIV-1 (RF) infected MT-2 cells, 3 days of culture; value used to standardize the virus inoculum; read-out: IC90 (concentration of compound required to reduce the HIV RNA level by 90%)
Protocol: Plasmid pDAB 72 containing both gag and pol sequences of BH10 (bp 113-1816) cloned into PTZ 19R was prepared according to Erickson-Viitanen et al. AIDS Research and Human Retroviruses 1989, 5, 577. The plasmid was linearized with Bam HI prior to the generation of in vitro RNA transcripts using the Riboprobe Gemini system II kit (Promega) with T7 RNA polymerase. Synthesized RNA was purified by treatment with RNase free DNAse (Promega), phenol-chloroform extraction, and ethanol precipitation. RNA transcripts were dissolved in water, and stored at −70° C. The concentration of RNA was determined from the A260.
Biotinylated capture probes were purified by HPLC after synthesis on an Applied Biosystems (Foster City, Calif.) DNA synthesizer by addition of biotin to the 5′ terminal end of the oligonucleotide, using the biotin-phosphoramidite reagent of Cocuzza, Tet. Lett. 1989, 30, 6287. […]
MT-2 and MT-4 cells were maintained in RPMI 1640 supplemented with 5% fetal calf serum (FCS) for MT-2 cells or 10% FCS for MT-4 cells, 2 mM L-glutamine and 50 μg/mL gentamycin, all from Gibco. […] Infectious titers of HIV-1(RF) stocks were 1-3×10^7 PFU (plaque forming units)/mL as measured by plaque assay on MT-2 cells (see below). […]

IC90: 0.2 µg/mL (≈ 0.947 µM)
SMILES: Nc1ccn([C@H]2CC[C@@H](CO)O2)c(=O)n1 [ddC, dideoxycytidine]
